In EP1963277B1, “FLUORINATED COMPOUNDS” (priority 2005, dated 2007):
Where two headings read alike, the source gives them in different places.

Experiments:
Type in all cases: in vivo
[1] = tested on: Male, Sprague-Dawley rats; assay: Maximal Electroshock Assay (rat); settings: for ED50: oral pretreatment, range in parentheses
Description: Male, Sprague-Dawley rats (approx. 100g body weight) were prescreened for tonic seizure susceptibility prior to drug testing. […] Protection was defined by the absence of a tonic extensor seizure in the animal within 20s of application of the electrical stimulus, which typically occurred in all vehicle pretreated animals. Animals received only one electroshock on the drug test day and so separate animals were used for the 0.5h and 4h timepoints. All drugs were administered in multiple doses.

SNI rats [2] = assay: Spared Nerve Injury (SNI) model, cold allodynia (acetone test); settings: for duration (s) of nociceptive response, Post Admin 30 min: *** P<0.001 vs Pre-Admin.; for duration (s) of nociceptive response, Pre-Admin. 0 min: baseline before administration
Description: (§1) The compounds were tested for their efficacy in reducing mechanical allodynia and cold allodynia in the spared nerve injury (SNI) model of chronic neuropathic pain. In this model, the left sciatic nerve of the rat is exposed under anesthesia. Two of the branches of the sciatic nerve viz. the common peroneal and tibial nerve are ligated and sectioned. The third branch (sural nerve) is left intact. The animals were allowed a post-operative recovery period of 7 days before they were subjected to any test.
Cold allodynia was assessed by using the acetone test. In this model, 25 µl of acetone is sprayed on to the plantar surface of the hind paw. Evaporation of acetone causes cooling of the skin. The cold stimulus sets up nociceptive responses from the injured paw as evidenced by paw lifting, paw licking and grooming. The duration of the nociceptive responses is noted.
Testing of compounds was done after 21 days post-operatively. After initial basal readings were taken, the test compound or the vehicle was administered (10 ml/kg) either intraperitoneally (30 mg/kg) or orally (60 mg/kg). The readings were taken 30 min after the administration.

SNI rats [3] = assay: Spared Nerve Injury (SNI) model, mechanical allodynia (Dynamic Plantar Aesthesiometer); settings: for withdrawal threshold, Post Admin 30 min / withdrawal threshold, Post Admin 60 min / withdrawal threshold, Post Admin 180 min: *** P<0.001 vs Pre-Admin.; for withdrawal threshold, Pre-Admin. 0 min: baseline before administration
Description: as §1
The presence of mechanical allodynia was assessed using the Dynamic Plantar Aesthesiometer (Ugo Basile, Italy) which is a modified version of the Von Frey Hair test. In this, a test filament is positioned below the animal's hind paw and the unit is activated which causes the filament to move up and touch the plantar surface of the hind paw. Increasing force is applied to the paw via the filament. […] The cut-off force is set at 50 g. The tests were done on both the non-injured (control) and the injured (SNI) paw.
Testing of compounds was done after 21 days post-operatively. After initial basal readings were taken, the test compound or the vehicle was administered (10 ml/kg) either intraperitoneally (30 mg/kg) or orally (60 mg/kg). The readings were taken again 30, 60 and 180 min after the compound/vehicle administration.

FCA-treated rats [4] = assay: Freund's Complete Adjuvant (FCA) model, paw edema/volume (plethysmometer); settings: p.o.
Description: (§2) Administration of FCA to the hind paw of an animal induces the formation of a localized edema and has been widely used as a model of chronic inflammatory pain. 100 µl of FCA is injected subcutaneously into the dorsal aspect of the left hind paw of the rats. The edema appears within 2 h reaches a peak by 6h and lasts for about 7 days. The effects of compounds on mechanical allodynia and paw volume were studied 2 days after FCA administration.
The edema/volume of the paw is a measure of inflammation induced by FCA. This was measured by using a plethysmometer (Ugo Basile, Italy). In this, the paw of the rat is immersed in a reservoir of water and the volume of water displaced indicates the paw volume.
After the initial basal (control) readings were taken, the test compound (60 mg/kg)/vehicle was administered orally in a volume of 10 ml/kg.

rats = assay: Persistent Inflammatory Pain (Formalin Model); settings: Rattus norvegicus, formalin test, 30 min pretreatment; for inhibition at 30 mg/kg: ip, i.p.; for inhibition at 60 mg/kg: po, p.o.
Description: The formalin test is a chemically-induced tonic pain model in which injection of formalin into a hind paw elicits a biphasic nociceptive behavior. The second phase of formalin response is predominantly due to a central sensitization phenomenon. Most clinically used drugs against neuropathic pain arc active on this second phase of formalin response. Formalin test is accepted as a valid model of persistent clinical pain.
The test was done by pretreating the rats with the test compound and 30 min later (pretreatment time), 50 µl of 2.5% formalin was injected into the right hind paw of the animal. The number of paw licking and flinching episodes were scored for 60 min post-formalin injection.
The compounds were administered either intraperitoneally (30 mg/kg) or orally (60 mg/kg).

Male, CD-1 mice = assay: Maximal Electroshock Assay (mouse); settings: for ED50: oral pretreatment, range in parentheses
Description: Male, CD-1 mice (20-30g body weight) were orally pretreated with test compound or vehicle control, and either at 1h or 4h post dose a maximal electroshock (45mA amplitude, 0.2s duration, 60Hz) was applied by corneal electrodes. Protection was defined by the absence of a tonic extensor seizure in the animal within 20s of application of the electrical stimulus, which typically occurred in all vehicle pretreated animals. Animals received only one electroshock and so separate animals were used for the 1h and 4h timepoints. All drugs were administered in multiple doses.

FCA-treated rats [5] = assay: Freund's Complete Adjuvant (FCA) model, mechanical allodynia (modified Randall-Selitto method); settings: p.o.
Description: as §2
The effect of the compounds in alleviating mechanical allodynia was assessed in the FCA-treated rats using the modified Randall-Selitto method (Analgesy-Meter, Ugo Basile, Italy). The animal's paw is placed on a small plinth under a cone-shaped pusher. Increasing force is applied to the paw by depressing a pedal until vocalization or withdrawal of the paw occurs. The minimum force required to elicit this vocalization/withdrawal is the paw pressure threshold. The cut-off was set at 150 g.
After the initial basal (control) readings were taken, the test compound (60 mg/kg)/vehicle was administered orally in a volume of 10 ml/kg. The paw pressure thresholds were measured 30, 60 and 180 min post administration. […] Some of the compounds were effective even at 60 and 180 min post administration.

[6] = read-out: MES oral ED50 0.5h, rat, electroshock 0.5h post dose
[7] = read-out: MES oral ED50 4h, rat, electroshock 4h post dose
[8] = group later given 30 mg/kg, i.p.
[9] = group later given 60 mg/kg, p.o.
[10] = group later given 60 mg/kg, baseline before administration
[11] = read-out: MES oral ED50 4h, mouse, electroshock 4h post dose
[12] = 60 mg/kg, ** P<0.01, *** P<0.001 vs Pre-Admin.

**Q.** How did the duration of action ([1]; rat MES, judged by similar potency at 0.5h and 4h pretreatment timepoints) turn out when CC(=O)N[C@H](COC(F)F)C(=O)NCc1ccc(Cl)cc1 [Compound 20] was run?
**A.** longer than Lacosamide

**Q.** What about the “Ratio ED50 4h vs. 0.5h” value ([1]; rat, oral) of the same compound?
**A.** 1.2

**Q.** What about the “shift in ED50 for 0.5 vs. 4h” value ([1]; rat, oral) of the same compound?
**A.** 1 to 1.4 fold

**Q.** What about the ED50 [1, 6] of the same compound?
**A.** 1.7 mg/kg

**Q.** What about the ED50 [1, 7] of the same compound?
**A.** 2 mg/kg

**Q.** And the “duration (s) of nociceptive response, Post Admin 30 min” value (SNI rats [2]; 30 mg/kg, i.p.)?
**A.** 3.4 ± 2.1*** s

**Q.** What about the “duration (s) of nociceptive response, Post Admin 30 min” value (SNI rats [2]; 60 mg/kg, p.o.) of the same compound?
**A.** 16.6 ± 6.3*** s

**Q.** What about the “duration (s) of nociceptive response, Pre-Admin. 0 min” value (SNI rats [2]; [8]) of the same compound?
**A.** 45.6 ± 6.9 s

**Q.** And the “duration (s) of nociceptive response, Pre-Admin. 0 min” value (SNI rats [2]; [9])?
**A.** 33.3 ± 4.3 s

**Q.** What about the “withdrawal threshold, Post Admin 30 min” value (SNI rats [3]; 30 mg/kg, i.p.) of the same compound?
**A.** 24.9 ± 4.4*** g

**Q.** And the “withdrawal threshold, Post Admin 60 min” value (SNI rats [3]; 30 mg/kg, i.p.)?
**A.** 23.3 ± 3.2*** g

**Q.** And the “withdrawal threshold, Post Admin 180 min” value (SNI rats [3]; 30 mg/kg, i.p.)?
**A.** 26.3 ± 2.5*** g

**Q.** And the “withdrawal threshold, Post Admin 30 min” value (SNI rats [3]; 60 mg/kg, p.o.)?
**A.** 19.3 ± 1.8*** g

**Q.** And the “withdrawal threshold, Post Admin 60 min” value (SNI rats [3]; 60 mg/kg, p.o.)?
**A.** 20.3 ± 1.6*** g

**Q.** And the “withdrawal threshold, Post Admin 180 min” value (SNI rats [3]; 60 mg/kg, p.o.)?
**A.** 14.7 ± 0.9*** g

**Q.** What about the “withdrawal threshold, Pre-Admin. 0 min” value (SNI rats [3]; [8]) of the same compound?
**A.** 12.4 ± 1.3 g

**Q.** And the “withdrawal threshold, Pre-Admin. 0 min” value (SNI rats [3]; [9])?
**A.** 7.5 ± 0.5 g

**Q.** What about the “paw volume (ml), Post Admin 30 min” value (FCA-treated rats [4]; 60 mg/kg) of the same compound?
**A.** 2.3 ± 0.1 mL

**Q.** What about the “paw volume (ml), Post Admin 60 min” value (FCA-treated rats [4]; 60 mg/kg) of the same compound?
**A.** 2.3 ± 0.1 mL

**Q.** What about the “paw volume (ml), Pre-Admin. 0 min” value (FCA-treated rats [4]; [10]) of the same compound?
**A.** 2.3 ± 0.1 mL

**Q.** What about the inhibition at 30 mg/kg (rats; *** P<0.001, read-out: %Inhibition Phase I) of the same compound?
**A.** 75.3 ± 9.3%

**Q.** What about the inhibition at 30 mg/kg (rats; *** P<0.001, read-out: %Inhibition Phase II) of the same compound?
**A.** 82.3 ± 9.7%

**Q.** And the inhibition at 60 mg/kg (rats; ** P<0.01, *** P<0.001, read-out: %Inhibition Phase II)?
**A.** 57.6 ± 7%

**Q.** And the inhibition at 60 mg/kg (rats; read-out: %Inhibition Phase I)?
**A.** 9.6 ± 8.1%

**Q.** What about the duration of action (Male, CD-1 mice; mouse MES, judged by similar potency at 1h and 4h pretreatment timepoints) of the same compound?
**A.** longer than Lacosamide

**Q.** What about the “Ratio ED50 4h vs. 1h” value (Male, CD-1 mice; mouse, oral) of the same compound?
**A.** 2.1

**Q.** What about the “shift in ED50 for 1 vs. 4h” value (Male, CD-1 mice; mouse, oral) of the same compound?
**A.** 1 to 3.5 fold

**Q.** And the ED50 (Male, CD-1 mice; mouse, electroshock 1h post dose, blockade of tonic extensor seizure, read-out: MES oral ED50 1h)?
**A.** 8.7 mg/kg

**Q.** And the ED50 (Male, CD-1 mice; [11])?
**A.** 17.9 mg/kg

**Q.** And the “paw withdrawal threshold (g), Post Admin 30 min” value (FCA-treated rats [5]; [12])?
**A.** 67.1 ± 9.9*** g

**Q.** What about the “paw withdrawal threshold (g), Post Admin 60 min” value (FCA-treated rats [5]; [12]) of the same compound?
**A.** 60.4 ± 5.8*** g

**Q.** What about the “paw withdrawal threshold (g), Post Admin 180 min” value (FCA-treated rats [5]; [12]) of the same compound?
**A.** 64.2 ± 5.6*** g

**Q.** What about the “paw withdrawal threshold (g), Pre-Admin. 0 min” value (FCA-treated rats [5]; [10]) of the same compound?
**A.** 23.3 ± 2.1 g

**Q.** Which ED50 [1, 6] does the source give for COC[C@@H](NC(C)=O)C(=O)NCc1ccccc1 [Lacosamide, R-2-acetamido-N-benzyl-3-methoxy-propanamide, reference compound] here?
**A.** 1.8 mg/kg

**Q.** What about the ED50 [1, 7] of the same compound?
**A.** 8.3 mg/kg

**Q.** What about the ED50 (Male, CD-1 mice; [11]) of the same compound?
**A.** 32 mg/kg
